Laboratory results reported in paper PMC6934184, “Selective DNA-PKcs inhibition extends the therapeutic index of localized radiotherapy and chemotherapy” (The Journal of Clinical Investigation, 2019).

System: NHEJ-mediated DSB repair in HEK293T cells
Test: NHEJ plasmid repair assay
Format: cell-based, Human
Conditions: 1 μM; 24 hours; AfeI or ScaI linearized plasmid
Procedure: The ability of NU5455 to impair the nonhomologous end joining (NHEJ) ability of cells was assessed using a modified version of a DNA repair assay developed by Nagel et al. ([52]), which measures the repair of a plasmid encoding blue fluorescent protein (BFP) and GFP linearized by either an ScaI or an AfeI restriction digestion. Full experimental details are given in Supplemental Methods.
Membranes were then washed in TBST and incubated with HRP-conjugated goat anti-mouse or anti-rabbit antibodies (P0447 and P0448 respectively, Dako) in 5% (w/v) milk/TBST at room temperature for 1-2 hours. Conjugates were detected using Clarity Western ECL Substrate (BioRad) and chemiluminescence imaged using the Fuji LAS-3000 Luminescent Image Analyzer System (Fujifilm).
Densitometry analysis was performed using AIDA Image Analyzer software (Raytest). The intensity of all bands was determined following a background subtraction, and the level of pDNA-PKcs stimulation determined by subtracting basal unstimulated pDNA-PKcs Ser2056 levels. pDNA-PKcs Ser2056 band intensity was calculated relative to total DNA-PKcs band intensity, and is given as percentage expression relative to irradiated, DMSO-treated cells. […]
violet laser with 440/50 emission filter to detect blue fluorescence using the VL1 channel. […]
Data were analyzed by FCS Express 6 Flow Research Edition (De Novo Software). […]

## CN(C(=O)CN1CCOCC1)c1ccc2sc3c(-c4cccc5c(=O)cc(N6CC7CCC(C6)O7)oc45)cccc3c2c1 [NU5455]
  repair of DNA-DSBs (NHEJ plasmid repair): inhibit the repair of DNA-DSBs
